Molecules are shown by their SMILES. pIC50: −log10 of the molar value. Activity calls are given as the source filed them. The rule behind the calls is not given here.

As usually defined, the IC50 is the concentration that inhibits the measured activity by half. What is called pIC50 is the IC50 on a negative log10 scale, so that one unit is a factor of ten.

The test relates to MCF-7/NOD2 cells, MDP-induced IL-8 secretion. The test is described as follows: inhibition of NOD2-driven IL-8 release, SAR follow-up, MCF-7/NOD2 cells, MDP stimulus, set 2 (AID 2503).
As to `C/C=C/Cn1c(SCCCc2ccccc2)nc2c1c(=O)[nH]c(=O)n2C`, the IC50 was > 25 µM (inactive). With `C=CCn1c(SCCCc2ccccc2)nc2c1c(=O)[nH]c(=O)n2C`, the IC50 is > 25 µM (inactive). Take `Nc1nc2ccccc2n1CCOc1ccc(Cl)cc1`: the IC50 is > 25 µM (inactive). `C/C=C/Cn1c(SCc2ccccc2)nc2c1c(=O)[nH]c(=O)n2C`: the IC50 was > 25 µM (inactive). `Cn1c(=O)[nH]c(=O)c2c1nc([N+](=O)[O-])n2Cc1ccccc1`: the negative-log IC50 (pIC50) was 5.88. For `CCCn1c(SCCc2ccccc2)nc2c1c(=O)[nH]c(=O)n2C`, the IC50 is > 25 µM (inactive). With `CCCCn1c(SCC(=O)Nc2nnc(CC)s2)nc2c1c(=O)n(C)c(=O)n2C`, the IC50 is > 25 µM (inactive). Regarding `CCCCn1c(SCC(=O)c2ccccc2)nc2c1c(=O)[nH]c(=O)n2C`, the IC50 was > 25 µM (inactive).

`Cc1ccc(S(=O)(=O)n2c(N)nc3ccccc32)cc1`: the pIC50 is 4.76. The same measure, in the same setting: in the case of `Nc1nc2ccccc2n1Cc1ccc(Cl)cc1` it was 5.34. As to `CCCCCn1c(SCCc2ccccc2)nc2c1c(=O)[nH]c(=O)n2C`, the IC50 was > 25 µM (inactive).

Turning to `COCCn1c(SCCCc2ccccc2)nc2c1c(=O)[nH]c(=O)n2C`, the IC50 was > 25 µM (inactive). Take `O=C(Nc1nc2ccccc2n1Cc1ccc(Cl)cc1)c1ccco1`: the IC50 is > 25 µM (inactive).

As for `CCCCn1c(CN2CCN(c3cccc(Cl)c3)CC2)nc2c1c(=O)n(C)c(=O)n2C`, the IC50 is > 25 µM (inactive). For the compound `CC(C)Sc1nc2c(c(=O)[nH]c(=O)n2C)n1Cc1ccccc1`, the IC50 was > 25 µM (inactive). The same measure, in the same setting: in the case of `C/C(Cl)=C\Cn1c(NCCc2ccccc2)nc2c1c(=O)n(C)c(=O)n2C` it was > 25 µM (inactive). Turning to `CCC(=O)Nc1nc2ccccc2n1Cc1ccc(Cl)cc1`, the pIC50 was 4.88.

On to `CC(C)n1c(SCCCc2ccccc2)nc2c1c(=O)[nH]c(=O)n2C`, for which the IC50 is > 25 µM (inactive). With `Cc1ccc(S(=O)(=O)n2c(=S)[nH]c3cc(C)ccc32)cc1`, the IC50 was > 25 µM (inactive). `CCCn1c(SCC(=O)Nc2nc3c(s2)CCCC3)nc2c1c(=O)n(C)c(=O)n2C`: the IC50 was > 25 µM (inactive). Take `COc1ccc(C(=O)Cn2c(N)nc3ccccc32)cc1`: the IC50 is > 25 µM (inactive). In the case of `C/C=C/Cn1c(SCc2ccc(Cl)cc2)nc2c1c(=O)[nH]c(=O)n2C`, the IC50 was > 25 µM (inactive). Regarding `Oc1ccc(N=Nc2ccccc2C(F)(F)F)c2cccnc12`, the IC50 is > 25 µM (inactive).

(Values after PubChem BioAssay AID2503 (Sanford-Burnham Center for Chemical Genomics, 2010).)
